Assay results reported in US20050164929A1, “Methods of preventing and treating inflammatory bowel disease” (LUPINE LOGIC, INC., priority 2000, published 2005).

Experiments:
[1] = system: DSS-induced ulcerative colitis in female Swiss Webster mice; assay: Chronic 2 week DSS-induced ulcerative colitis (N-404); format: in vivo, mouse
Description: Colitis was induced in female Swiss Webster mice by exposure to 3% DSS in the drinking water (ad libitum) on study Days 1-5 and maintained by exposure to 1% DSS in the drinking water (ad libitum) on study Days 6-15. Mice were randomly assigned to 4 groups of 15 animals (Table X). Mice were exposed to 3% DSS in drinking water on test Days 1 through 5 and 1% DSS on test Days 6-15, with concurrent intraperitoneal (IP) treatments of vehicle or CG53135-05 at 0.33, 1.67 and 3.33 mg/kg (UV) Days 6-14 after disease was established. Mice were weighed daily. On Day 15 animals were terminated by cervical dislocation, the colon length was measured, and colon content was scored. Tissues were collected into 10% neutral buffered formalin and processed routinely for histopathology.
Clinical Parameters and Gross Pathology: Only animals that survived the duration of the study were included in the analysis of body weight change, terminal colon lengths, and colon content scores. At necropsy, the colon length was measured and assessed for evidence of stool consistency changes. Colon content was scored at necropsy according to the following criteria: 0=Normal (firm, well formed stool); 1=Semi-solid stool; 2=Semi-solid to fluid stool; and 3=Semi-solid with definite evidence of blood, bloody fluid or no content.
Histopathology: At necropsy, the colon was harvested and divided into 2 approximately equal segments, proximal and distal, to assess regional changes induced in this model. Distal ends were marked to maintain orientation. These colon segments were collected, preserved in 10% neutral buffered formalin, and routinely processed for histopathologic evaluation. During processing for histology, the proximal and distal colon segments were each trimmed to obtain 4 equally spaced segments, and hematoxylin and eosin (H&E) stained slides were prepared for each. Both proximal and distal tissues were examined as these tissues are affected to different degrees of severity in this model (more severe and less variable symptoms predominate in the distal colon).
For each colon section, submucosal edema was quantified by measuring the distance (mm) from the muscularis mucosa to the internal border of the outer muscle layer. The extent of inflammation (foamy macrophages, lymphocytes and polymorphonuclear cell infiltrate) was assigned severity scores according to the following ranking: 0=Normal; 1=Minimal; 2=Mild; 3=Moderate; 4=Marked; and 5=Severe.
The parameters reflecting epithelial cell loss/damage were scored individually using a percent area involved scoring method. Parameters that were scored using the percent involvement scale included colon glandular loss and colon erosion. • 0=None • 1=1-10% of the mucosa affected • 2=11-25% of the mucosa affected • 3=26-50% of the mucosa affected • 4=51-75% of the mucosa affected • 5=76-100% of the mucosa affected
Mucosal epithelial hyperplasia (basophilia, mitotic figures, multilayered on basement membranes, absence of goblet cells) was scored 0-5 based on the following criteria • 0=Normal • 1=Minimal-small foci generally adjacent to the inflammatory changes • 2=Mild-11-25% of mucosa affected • 3=Moderate-26-50% of mucosa affected • 4=Marked-[…] of mucosa affected • 5=Severe-51-100% of mucosa affected plus papillary proliferation into lumen
Mucosal thickness (an indicator of proliferative changes or edematous inflammatory mucosal expansion) was measured by placing an ocular micrometer at the base of the glands and the overlying surface epithelium in a non-tangential area of section representative of the thickest areas of mucosa.
The scores for proximal tissues and distal colon were averaged to determine a score for the entire colon for each parameter evaluated. […]

[2] = system: NIH 3T3 murine embryonic fibroblast cells; assay: BrdU incorporation bioassay of RP-HPLC peak fractions; format: cell-based, mouse; details: BrdU incorporation
Description: The biological activity of CG53135-05 related species collected from the 4 peaks identified by LC and MS was measured by treatment of serum-starved cultured NIH 3T3 murine embryonic fibroblast cells with various doses of the isolated CG53135-05 related species and measurement of incorporation of bromodeoxyuridine (BrdU) during DNA synthesis. For this assay, cells were cultured in Dulbecco's modified Eagle's medium supplemented with 10% fetal bovine serum. Cells were grown in 96-well plates to confluence at 37° C. in 10% CO2/air and then starved in Dulbecco's modified Eagle's medium for 24-72 hours. CG53135-05-related species were added and incubated for 18 hours at 37° C. in 10% CO2/air. BrdU ([…]) was added and incubated with the cells for 2 hours at 37° C. in 10% CO2/air. Incorporation of BrdU was measured by enzyme-linked immunosorbent assay according to the manufacturer's specifications (Roche Molecular Biochemicals, Indianapolis, Ind.).
Peak 4 was not included in this assay since insufficient material was collected (Peak 4 is less than 3% of the total peak area for CG53135-05).

[3] = system: chronic DSS-induced ulcerative colitis in female Swiss Webster mice; assay: Chronic DSS colitis, every other day dosing (N-405); format: in vivo, mouse; details: 3.33 mg/kg (UV) IP on Days 6, 8, 10, 12, 14 (q2d)
[4] = system: mesenchymal and epithelial cells; assay: Proliferation summary for variants; format: cell-based; details: in vitro
Description: (§1) Experiments were performed to evaluate the proliferative response of representative cell types to CG53135, e.g., a full-length tagged variant (CG53135-01), a deletion variant (CG53135-02), and a full-length codon-optimized untagged variant (CG53135-05).
(§2) CG53135-02 (batch 1 and 13) was also used in these experiments. Protein was expressed in E. coli, BLR (DE3) (Novagen), transformed with the deletion variant CG53135-02 inserted into a pET24a vector (Novagen). A research cell bank (RCB) was produced and cell paste containing CG53135-02 was produced by fermentation of cells originating from the RCB. Cell membranes were disrupted by high-pressure homogenization, and lysate was clarified by centrifugation. CG53135-02 was purified by ion exchange chromatography. The final protein fraction was dialyzed against the formulation buffer (100 mM citrate, 1 mM ethylenediaminetetraacetic acid (EDTA), and 1 M L-arginine).
(§3) CG53135-05, DEV10, which were also used in these experiments, was prepared by Cambrex Biosciences (Hopkinton, Mass.) according to Process 1 as described in Section 6.18.1, infra.
(§4) BrdU Incorporation: proliferative activity was measured by treatment of serum-starved cultured cells with a given agent and measurement of BrdU incorporation during DNA synthesis. Cells were cultured in respective manufacturer recommended basal growth medium supplemented with 10% fetal bovine serum or 10% calf serum as per manufacturer recommendations. Cells were grown in 96-well plates to confluence at 37° C. in 10% CO2/air (to subconfluence at 5% CO2 for dedifferentiated chondrocytes and NHOst). Cells were then starved in respective basal growth medium for 24-72 hours. CG53135 protein purified from E. coli or pCEP4/Sec or pCEP4/Sec-FGF 20× enriched conditioned medium was added (10 μL/100 μL of culture) for 18 hours. BrdU (10 μM final concentration) was then added and incubated with the cells for 5 hours. BrdU incorporation was assayed according to the manufacturer's specifications (Roche Molecular Biochemicals, Indianapolis, Ind.).
(§5) The above described experiments were also performed using CG53135-02 and CG53135-05 protein products, and the results are summarized in the Conclusion section below.

endothelial cells = assay: Proliferation summary for variants; format: cell-based; details: in vitro
Description: as §1, §2, §3, §4, §5

[5] = 3.33 mg/kg (UV), non-significant

Substance: CG53135-05: Codon optimized, full length FGF-20, untagged; SEQ ID NOs 8 and 2
- reduction in weight loss ([1]; 0.33 mg/kg (UV) IP once daily Days 6-14): 19%
- reduction in weight loss ([1]; 1.67 mg/kg (UV) IP once daily Days 6-14): 35%
- improvement in "on" inflammation ([1]; 3.33 mg/kg (UV)): 35%
- improvement in distal gland loss ([1]; 3.33 mg/kg (UV)): 38%
- improvement in distal summed histopathologic scores ([1]; 3.33 mg/kg (UV)): 38%
- improvement in total gland loss ([1]; 3.33 mg/kg (UV)): 37%
- improvement in total inflammation ([1]; 3.33 mg/kg (UV)): 34%
- improvement in total summed histopathologic scores ([1]; 3.33 mg/kg (UV)): 37%
- reduction in weight loss ([1]; 3.33 mg/kg (UV) IP once daily Days 6-14): 67%
- improvement in the hyperplasia score [1, 5]: 31%
- inhibition of the total mucosal thickness [1, 5]: 39%
- colon length, inhibition of decrease ([1]; 3.33 mg/kg (UV), statistically significant): 29%
- improvement of colon scores ([1]; 1.67 or 3.33 mg/kg (UV)): 21-29%
- inhibition of proximal, distal and total colon erosion ([1]; mid and high dose groups, non-significant): 46-62%
- induction of DNA synthesis / activity in proliferation assays [2]: dose-dependent manner
- severity of chronic DSS-induced ulcerative colitis [3]: significantly reduced the severity
- proliferation of mesenchymal and epithelial cells [4]: induce proliferation
- proliferation of endothelial cells (endothelial cells): not
